# Reference: US9393232B2 (BeiGene, Ltd., priority 2013, dated 2016)
# Read-outs that look alike come from different tables or passages of the source.
# Key:
# [1] = molecular target: Recombinant human BRD4(1-477) (Homo sapiens (Human), UniProt O60885); test: BRD4 TR-FRET biochemical IC50 assay; format: binding; conditions: TR-FRET, tetra-acetylated histone peptide; read-out: BRD4 IC50
# MV4-11 = MV4-11 (3 Days) EC50; format: cell-based
Structure (SMILES),IC50 [1],"EC50 (MV4-11; Homo sapiens, 72 h)",EC50 (MV4-11),"EC50 (MV4-11; Homo sapiens, MV4-11, 72 h)"
"Cc1noc(C)c1-c1ccc2c(c1)C(O)(c1ccccc1)C(=O)N2 (single isomer, unassigned) [Compound 1.1a, 5-(3,5-dimethylisoxazol-4-yl)-3-hydroxy-3-phenylindolin-2-one]",35 nM,58 nM,,
"Cc1noc(C)c1-c1ccc2c(c1)C(N)(c1ccccc1)C(=O)N2 (single isomer, unassigned) [Compound 2.2a, 3-amino-5-(3,5-dimethylisoxazol-4-yl)-3-phenylindolin-2-one]",24 nM,,159 nM,
"Cc1noc(C)c1-c1ccc2c(c1)C(N)(c1ccccc1)C(=O)N2 (single isomer, unassigned) [Compound 2.2b, 3-amino-5-(3,5-dimethylisoxazol-4-yl)-3-phenylindolin-2-one]",3600 nM,,> 10000 nM,
"Cc1noc(C)c1-c1ccc2c(c1)C(N[C@@H](CO)C(C)C)(c1ccccc1)C(=O)N2 (single isomer, unassigned) [Compound 2.11b]",150 nM,,,180 nM
"Cc1noc(C)c1-c1ccc2c(c1)C(N[C@H](CO)C(C)C)(c1ccccc1)C(=O)N2 (single isomer, unassigned) [Compound 2.12a]",89 nM,,,144 nM
"Cc1noc(C)c1-c1ccc2c(c1)C(NC[C@@H](C)O)(c1ccccc1)C(=O)N2 (single isomer, unassigned) [Compound 2.13b]",81 nM,,,140 nM
"Cc1noc(C)c1-c1ccc2c(c1)C(NC[C@H](C)O)(c1ccccc1)C(=O)N2 (single isomer, unassigned) [Compound 2.14a]",78 nM,,,115 nM
"Cc1noc(C)c1-c1ccc2c(c1)C(N[C@H](CO)C(C)C)(C1CCCCC1)C(=O)N2 (single isomer, unassigned) [Compound 2.19b]",170 nM,,,282 nM
"Cc1noc(C)c1-c1ccc2c(c1)C(N[C@@H](CO)C(C)C)(C1CCCCC1)C(=O)N2 (single isomer, unassigned) [Compound 2.20b]",350 nM,,,377 nM
"COC(=O)[C@@H]1C[C@@H](O)CN1C1(c2ccccc2)C(=O)Nc2ccc(-c3c(C)noc3C)cc21 (single isomer, unassigned) [Compound 2.50a]",460 nM,,,681 nM
"Cc1noc(C)c1-c1ccc2c(c1)C(c1ccsc1)(N1CCC[C@@H](N)C1)C(=O)N2 (single isomer, unassigned) [Compound 4.6a]",30 nM,,102 nM,
"Cc1noc(C)c1-c1ccc2c(c1)C(c1ccsc1)(N1CCC[C@@H](N)C1)C(=O)N2 (single isomer, unassigned) [Compound 4.6b]",24 nM,,35 nM,
"Cc1noc(C)c1-c1ccc2c(c1)C(c1ccsc1)(N1CCC[C@H](N)C1)C(=O)N2 (single isomer, unassigned) [Compound 4.7a]",24 nM,,,35 nM
"Cc1noc(C)c1-c1ccc2c(c1)C(c1ccsc1)(N1CCC[C@H](N)C1)C(=O)N2 (single isomer, unassigned) [Compound 4.7b]",8 nM,,,34 nM
"Cc1noc(C)c1-c1ccc2c(c1)C(c1ccsc1)(N1CCC[C@H](O)C1)C(=O)N2 (single isomer, unassigned) [Compound 4.10b]",,,56 nM,
"Cc1noc(C)c1-c1ccc2c(c1)C(O)(c1ccccc1)C(=O)N2 (stereo not shown) [Compound 1.1, 5-(3,5-dimethylisoxazol-4-yl)-3-hydroxy-3-phenylindolin-2-one]",51 nM,124 nM,,
"Cc1noc(C)c1-c1ccc2c(c1)C(O)(c1ccc(Cl)cc1)C(=O)N2 (stereo not shown) [Compound 1.2, 3-(4-chlorophenyl)-5-(3,5-dimethylisoxazol-4-yl)-3-hydroxyindolin-2-one]",260 nM,364 nM,,
"Cc1noc(C)c1-c1ccc2c(c1)C(O)(c1cccc(Cl)c1)C(=O)N2 (stereo not shown) [Compound 1.3, 3-(3-chlorophenyl)-5-(3,5-dimethylisoxazol-4-yl)-3-hydroxyindolin-2-one]",380 nM,369 nM,,
"Cc1noc(C)c1-c1ccc2c(c1)C(O)(c1ccc(F)cc1)C(=O)N2 (stereo not shown) [Compound 1.4, 5-(3,5-dimethylisoxazol-4-yl)-3-(4-fluorophenyl)-3-hydroxyindolin-2-one]",100 nM,181 nM,,
"Cc1ccc(C2(O)C(=O)Nc3ccc(-c4c(C)noc4C)cc32)cc1 (stereo not shown) [Compound 1.5, 5-(3,5-dimethylisoxazol-4-yl)-3-hydroxy-3-p-tolylindolin-2-one]",180 nM,285 nM,,
"Cc1cc(C2(O)C(=O)Nc3ccc(-c4c(C)noc4C)cc32)ccc1F (stereo not shown) [Compound 1.6, 5-(3,5-dimethylisoxazol-4-yl)-3-(4-fluoro-3-methylphenyl)-3-hydroxyindolin-2-one]",380 nM,594 nM,,
"Cc1ccccc1C1(O)C(=O)Nc2ccc(-c3c(C)noc3C)cc21 (stereo not shown) [Compound 1.7, 5-(3,5-dimethylisoxazol-4-yl)-3-hydroxy-3-o-tolylindolin-2-one]",570 nM,1500 nM,,

Structure (SMILES),IC50 [1],"EC50 (MV4-11; Homo sapiens, 72 h)",EC50 (MV4-11),"EC50 (MV4-11; Homo sapiens, MV4-11, 72 h)"
"Cc1noc(C)c1-c1ccc2c(c1)C(O)(c1ccc(F)c(F)c1)C(=O)N2 (stereo not shown) [Compound 1.8, 3-(3,4-difluorophenyl)-5-(3,5-dimethylisoxazol-4-yl)-3-hydroxyindolin-2-one]",200 nM,425 nM,,
"COc1ccc(C2(O)C(=O)Nc3ccc(-c4c(C)noc4C)cc32)cc1 (stereo not shown) [Compound 1.9, 5-(3,5-dimethylisoxazol-4-yl)-3-hydroxy-3-(4-methoxyphenyl)indolin-2-one]",410 nM,536 nM,,
"Cc1ccsc1C1(O)C(=O)Nc2ccc(-c3c(C)noc3C)cc21 (stereo not shown) [Compound 1.13, 5-(3,5-dimethylisoxazol-4-yl)-3-hydroxy-3-(3-methylthiophen-2-yl)indolin-2-one]",560 nM,746 nM,,
"Cc1noc(C)c1-c1ccc2c(c1)C(O)(C1CCCCC1)C(=O)N2 (stereo not shown) [Compound 1.15, 3-cyclohexyl-5-(3,5-dimethylisoxazol-4-yl)-3-hydroxyindolin-2-one]",77 nM,183 nM,,
"Cc1noc(C)c1-c1ccc2c(c1)C(O)(C1CCCC1)C(=O)N2 (stereo not shown) [Compound 1.17, 3-cyclopentyl-5-(3,5-dimethylisoxazol-4-yl)-3-hydroxyindolin-2-one]",270 nM,671 nM,,
"Cc1noc(C)c1-c1ccc2c(c1)C(O)(C1CCC1)C(=O)N2 (stereo not shown) [Compound 1.18, 3-cyclobutyl-5-(3,5-dimethylisoxazol-4-yl)-3-hydroxyindolin-2-one]",510 nM,1140 nM,,
"Cc1noc(C)c1-c1ccc2c(c1)C(O)(C1CC1)C(=O)N2 (stereo not shown) [Compound 1.19, 3-cyclopropyl-5-(3,5-dimethylisoxazol-4-yl)-3-hydroxyindolin-2-one]",850 nM,1960 nM,,
"CC#CC1(O)C(=O)Nc2ccc(-c3c(C)noc3C)cc21 (stereo not shown) [Compound 1.22, 5-(3,5-dimethylisoxazol-4-yl)-3-hydroxy-3-(prop-1-ynyl)indolin-2-one]",220 nM,,,478 nM
"C=CCCC1(O)C(=O)Nc2ccc(-c3c(C)noc3C)cc21 (stereo not shown) [Compound 1.24, 3-(but-3-enyl)-5-(3,5-dimethylisoxazol-4-yl)-3-hydroxyindolin-2-one]",,,,934 nM
"C=CCCCC1(O)C(=O)Nc2ccc(-c3c(C)noc3C)cc21 (stereo not shown) [Compound 1.25, 5-(3,5-dimethylisoxazol-4-yl)-3-hydroxy-3-(pent-4-enyl)indolin-2-one]",,,,1540 nM
"Cc1noc(C)c1-c1ccc2c(c1)C(Cl)(c1ccccc1)C(=O)N2 (stereo not shown) [Compound 1.31, 3-Chloro-5-(3,5-dimethylisoxazol-4-yl)-3-phenylindolin-2-one]",58 nM,,,152 nM
"Cc1noc(C)c1-c1ccc2c(c1)C(OCCO)(c1ccccc1)C(=O)N2 (stereo not shown) [Compound 1.32, 5-(3,5-Dimethylisoxazol-4-yl)-3-(2-hydroxyethoxy)-3-phenylindolin-2-one]",79 nM,,,82 nM
"Cc1noc(C)c1-c1ccc2c(c1)C(OCCO)(C1CCCCC1)C(=O)N2 (stereo not shown) [Compound 1.33, 3-Cyclohexyl-5-(3,5-dimethylisoxazol-4-yl)-3-(2-hydroxyethoxy)indolin-2-one]",,,,307 nM
"Cc1noc(C)c1-c1ccc2c(c1)C(NCCO)(c1ccccc1)C(=O)N2 (stereo not shown) [Compound 2.1, 5-(3,5-dimethylisoxazol-4-yl)-3-(2-hydroxyethylamino)-3-phenylindolin-2-one]",70 nM,,,78 nM
"Cc1noc(C)c1-c1ccc2c(c1)C(N)(c1ccccc1)C(=O)N2 (stereo not shown) [Compound 2.2, 3-amino-5-(3,5-dimethylisoxazol-4-yl)-3-phenylindolin-2-one]",,,,283 nM
"Cc1noc(C)c1-c1ccc2c(c1)C(c1ccccc1)(N1CCCCC1)C(=O)N2 (stereo not shown) [Compound 2.3, 5-(3,5-dimethylisoxazol-4-yl)-3-phenyl-3-(piperidin-1-yl)indolin-2-one]",84 nM,,,542 nM
"Cc1noc(C)c1-c1ccc2c(c1)C(c1ccccc1)(N1CCCC(O)C1)C(=O)N2 (stereo not shown) [Compound 2.15, 5-(3,5-dimethylisoxazol-4-yl)-3-(3-hydroxypiperidin-1-yl)-3-phenylindolin-2-one]",,,,95 nM
"Cc1noc(C)c1-c1ccc2c(c1)C(c1ccccc1)(N1CCC[C@@H](O)C1)C(=O)N2 (stereo partly drawn) [Compound 2.17, 5-(3,5-dimethylisoxazol-4-yl)-3-((R)-3-hydroxypiperidin-1-yl)-3-phenylindolin-2-one]",,,,363 nM
"Cc1noc(C)c1-c1ccc2c(c1)C(C1CCCCC1)(N1CCN(C)CC1)C(=O)N2 (stereo not shown) [Compound 2.26, 3-cyclohexyl-5-(3,5-dimethylisoxazol-4-yl)-3-(4-methylpieprazin-1-yl)indolin-2-one]",,,,204 nM
"Cc1noc(C)c1-c1ccc2c(c1)C(C1CCCC1)(N1CCN(C)CC1)C(=O)N2 (stereo not shown) [Compound 2.36, 3-cyclopentyl-5-(3,5-dimethylisoxazol-4-yl)-3-(4-methylpiperazin-1-yl)indolin-2-one]",,,,596 nM
"Cc1noc(C)c1-c1ccc2c(c1)C(c1ccsc1)(N1CCCC(O)C1)C(=O)N2 (stereo not shown) [Compound 4.8, 5-(3,5-dimethylisoxazol-4-yl)-3-(3-hydroxypiperidin-1-yl)-3-(thiophen-3-yl)indolin-2-one]",,,,42 nM
